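Cells were grown in 96-well plates and exposed to each compound for 48 hours at five concentrations; endpoints were interpolated linearly between bracketing concentrations, or set to the highest concentration if not reached. Here, GI50 denotes the concentration required for 50% inhibition of growth.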 The source made the active and inactive calls. No stated cut-off is given here; in the data, active = GI50 up to about 1.1 µM and inactive = higher.
Legend:
Assay in all cases: DTP human tumour cell line panel, 48 h
[1] = tested on: UO-31
[2] = tested on: HOP-62
[3] = tested on: T47D
[4] = tested on: MDA-MB-435
[5] = tested on: SF-295
[6] = tested on: HCC 2998
[7] = tested on: BT-549
[8] = tested on: SK-MEL-5
[9] = tested on: SW-620
[10] = tested on: HT-29
[11] = tested on: SNB-19
[12] = tested on: OVCAR-5
[13] = tested on: MDA-N
[14] = tested on: DU-145
[15] = tested on: RPMI-8226
[16] = tested on: UACC-257
[17] = tested on: PC-3
[18] = tested on: NCI-H226
[19] = tested on: HCT-15
[20] = tested on: SF-268
[21] = tested on: NCI/ADR-RES
[22] = tested on: HOP-92
[23] = tested on: KM12
[24] = tested on: HCT-116
[25] = tested on: K562
[26] = tested on: ACHN
[27] = tested on: 786-0
[28] = tested on: Malme-3M
[29] = tested on: EKVX
[30] = tested on: SNB-75
[31] = tested on: SF-539
[32] = tested on: A498
[33] = tested on: NCI-H522
[34] = tested on: M14
[35] = tested on: UACC-62
[36] = tested on: A549
[37] = tested on: IGROV-1
[38] = tested on: NCI-H23
[39] = tested on: OVCAR-8
[40] = tested on: MOLT-4
[41] = tested on: RXF 393
[42] = tested on: TK-10
[43] = tested on: SK-MEL-28
[44] = tested on: SN12C
[45] = tested on: Hs-578T
[46] = tested on: MCF7
[47] = tested on: NCI-H460
[48] = tested on: COLO 205
[49] = tested on: U-251
[50] = tested on: SK-OV-3
[51] = tested on: SK-MEL-2
[52] = tested on: CAKI-1
[53] = tested on: OVCAR-3
[54] = tested on: LOX IMVI
[55] = tested on: MDA-MB-231

S=C(N/N=C\C=N/NC(=S)N1CCCCCC1)N1CCCCCC1
GI50 [1]: 8.22 µM (inactive)
GI50 [2]: 9.12 µM (inactive)
GI50 [3]: 1.44 µM (inactive)
GI50 [4]: 42.8 µM (inactive)
GI50 [5]: 7.73 µM (inactive)
GI50 [6]: > 64.9 µM (inactive)
GI50 [7]: > 100 µM (inactive)
GI50 [8]: 14.2 µM (inactive)
GI50 [9]: 6.78 µM (inactive)
GI50 [10]: 7.28 µM (inactive)
GI50 [11]: 34.2 µM (inactive)
GI50 [12]: > 100 µM (inactive)
GI50 [13]: > 68.1 µM (inactive)
GI50 [14]: 9.31 µM (inactive)
GI50 [15]: > 100 µM (inactive)
GI50 [16]: > 61.9 µM (inactive)
GI50 [17]: 12.2 µM (inactive)
GI50 [18]: 28.6 µM (inactive)
GI50 [19]: 8.02 µM
GI50 [20]: 10.5 µM (inactive)
GI50 [21]: 15.6 µM (inactive)
GI50 [22]: 59 µM (inactive)
GI50 [23]: 18.7 µM (inactive)
GI50 [24]: 7.73 µM (inactive)
GI50 [25]: 9.14 µM (inactive)
GI50 [26]: 8.59 µM (inactive)
GI50 [27]: 14.3 µM (inactive)
GI50 [28]: 22.2 µM (inactive)
GI50 [29]: > 57.3 µM (inactive)
GI50 [30]: 22.5 µM (inactive)
GI50 [31]: 64.9 µM (inactive)
GI50 [32]: 57.3 µM (inactive)
GI50 [33]: 8.07 µM (inactive)
GI50 [34]: 18.1 µM (inactive)
GI50 [35]: 21.2 µM (inactive)
GI50 [36]: 6.85 µM (inactive)
GI50 [37]: 26 µM (inactive)
GI50 [38]: > 31.1 µM (inactive)
GI50 [39]: 4.65 µM (inactive)
GI50 [40]: 7.1 µM (inactive)
GI50 [41]: 20.6 µM (inactive)
GI50 [42]: 57.9 µM (inactive)
GI50 [43]: > 100 µM (inactive)
GI50 [44]: > 100 µM (inactive)
GI50 [45]: 32.8 µM (inactive)
GI50 [46]: 14.3 µM (inactive)
GI50 [47]: 3.93 µM (inactive)
GI50 [48]: 15.9 µM (inactive)
GI50 [49]: 5.21 µM (inactive)
GI50 [50]: 25.5 µM (inactive)
GI50 [51]: 17.1 µM (inactive)
GI50 [52]: > 26.7 µM (inactive)
GI50 [53]: 13.8 µM (inactive)
GI50 [54]: 13.5 µM (inactive)
GI50 [55]: > 31.5 µM (inactive)
